Data as given in patent publication US6825230B2, “Spiro and dispiro 1,2,4-trixolane antimalarials” (Medicines for Malaria Venture MMV, priority 2002, dated 2004).
Converted amounts (≈) assume the structure as drawn. Read-outs that look alike come from different tables or passages of the source.

Legend:
[1] = test system: chloroquine-resistant K1 strain of P. falciparum; assay: In vitro antimalarial semiautomated microdilution assay ([3H]-hypoxanthine incorporation), K1 strain; format: cell-based, Plasmodium falciparum; settings: Plasmodium falciparum
In short: (§1)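 Asynchronous stock-culture parasites (intraerythrocytic forms), serial compound dilutions; readout [3H]-hypoxanthine uptake; IC50 via Logit regression.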

[2] = test system: chloroquine-sensitive NF54 strain of P. falciparum; assay: In vitro antimalarial semiautomated microdilution assay ([3H]-hypoxanthine incorporation), NF54 strain; format: cell-based, Plasmodium falciparum; settings: Plasmodium falciparum
In short: as §1

[3] = test system: ANKA strain of P. berghei; assay: Single dose STI in vivo screen in infected mice; design: species or system Plasmodium berghei; settings: for Survival (days) 10 mg/kg po: single 10 mg/kg po in 3% ethanol and 7% Tween 80; for Survival (days) 10 mg/kg po / Survival (days) 10 mg/kg SSV po / Survival (days) 10 mg/kg sc: untreated 6-7 days; for Activity (%) 10 mg/kg po: single 10 mg/kg po in 3% ethanol and 7% Tween 80 on day 1 post-infection; for Survival (days) 10 mg/kg SSV po: single 10 mg/kg po in SSV; for Activity (%) 10 mg/kg SSV po: single 10 mg/kg po in standard suspending vehicle (SSV) on day 1 post-infection; for Survival (days) 10 mg/kg sc: single 10 mg/kg sc in 3% ethanol and 7% Tween 80; for Activity (%) 10 mg/kg sc: single 10 mg/kg sc in 3% ethanol and 7% Tween 80 on day 1 post-infection
[4] = K1, 72 h, read-out: IC50 (ng/ml) K1, chloroquine-resistant K1 strain, 72 h incubation
[5] = NF54, 72 h, read-out: IC50 (ng/ml) NF54, chloroquine-sensitive NF54 strain, 72 h incubation
[6] = percent reduction in parasitemia on day 3
[7] = chloroquine-resistant K1 strain, 72 h incubation, read-out: IC50 (ng/ml) K1
[8] = chloroquine-sensitive NF54 strain, 72 h incubation, read-out: IC50 (ng/ml) NF54

Compound	IC50 [1, 4] [ng/mL]	IC50 [2, 5] [ng/mL]	Survival (days) 10 mg/kg po [3] [days]	Activity (%) 10 mg/kg po [3, 6]	Survival (days) 10 mg/kg SSV po [3]	Activity (%) 10 mg/kg SSV po [3, 6]	Survival (days) 10 mg/kg sc [3] [days]	Activity (%) 10 mg/kg sc [3, 6]	IC50 [1, 7] [ng/mL]	IC50 [2, 8] [ng/mL]	Survival (days) 3 mg/kg SSV po ([3]; single 3 mg/kg po in SSV) [days]	Activity (%) 3 mg/kg SSV po ([3]; single 3 mg/kg po in SSV, percent reduction in parasitemia on day 3) [%]
O=C(O)c1ccccc1C(=O)N1CCC2(CC1)OOC1(O2)C2CC3CC(C2)CC1C3 (stereo not drawn) [OZ132, Adamantane-2-spiro-3′-8′-(2′-carboxybenzoyl)-1′,2′,4′-trioxa-8′-azaspiro[4.5]decane]	9.8 (≈ 0.0237 µM)	> 10	6.3	38%	5.7 days	0%	6.3	40%				
CC1(C)C2CCC1(CS(=O)(=O)N1CCC3(CC1)OOC1(O3)C3CC4CC(C3)CC1C4)C(=O)C2 (stereo not drawn) [OZ91, Adamantane-2-spiro-3′-8′-[(1′S)-10′-camphorsulfonyl]-1′,2′,4′-trioxa-8′-azaspiro[4.5]decane]	1.4 (≈ 0.00292 µM)	0.42 (≈ 0.000876 µM)	5.7	20%	6.0 days	0%	7.3	85%				
OC1(Cc2ccccn2)CCC2(CC1)OOC1(O2)C2CC3CC(C2)CC1C3 (stereo not drawn) [OZ275]	0.66 (≈ 0.00178 µM)	0.74 (≈ 0.00199 µM)			7.3/ND days	68/ND %						
N#Cc1ccc(C2(c3ccccc3)OOC3(O2)C2CC4CC(C2)CC3C4)cc1 (stereo not drawn) [OZ124]			6.3	72%	5.3 days	17%	7.0	86%	2.1 (≈ 0.00562 µM)	1.7 (≈ 0.00455 µM)		
CS(=O)(=O)NC[C@H]1CC[C@]2(CC1)OOC1(O2)C2CC3CC(C2)CC1C3 (stereo partly drawn) [OZ257]			8.3	99.00%	7.7 days	99.49%	9.7	99.84%	42 (≈ 0.113 µM)	21 (≈ 0.0565 µM)		
O=C(O)CCC[C@H]1CC[C@]2(CC1)OOC1(O2)C2CC3CC(C2)CC1C3 (stereo partly drawn) [OZ261]			7.0	61%	7.0 days	47%	8.0	92%	39 (≈ 0.111 µM)	18 (≈ 0.0514 µM)		
CCOC(=O)c1ccc(C2(c3ccc(C(=O)OCC)cc3)OOC3(O2)C2CC4CC(C2)CC3C4)cc1 (stereo not drawn) [OZ125, Adamantane-2-spiro-3′-5′,5′-bis[4′-(ethoxycarbonyl)phenyl]-1′,2′,4′-trioxolane]			5.3	8%	5.7 days	0%	6.0	0%	68 (≈ 0.138 µM)	> 100		
Clc1ccc2c(NCCNC3CCC4(CC3)OOC3(O4)C4CC5CC(C4)CC3C5)ccnc2c1 (stereo not drawn) [OZ258]			6.0	75%	6.0 days	70%	10.7	99.95%	5.8 (≈ 0.012 µM)	5.2 (≈ 0.0107 µM)		
O=C(NC[C@H]1CC[C@]2(CC1)OOC1(O2)C2CC3CC(C2)CC1C3)c1ccncc1 (stereo partly drawn) [OZ255]			9.0	99.61%	8.7 days	99.54%	10.0	99.92%	2.2 (≈ 0.00552 µM)	1.1 (≈ 0.00276 µM)		
O=S(=O)(C[C@H]1CC[C@]2(CC1)OOC1(O2)C2CC3CC(C2)CC1C3)c1ccccc1 (stereo partly drawn) [OZ210]			9.3	99.23%	8.0 days	77%	10.3	99.94%	1.4 (≈ 0.00334 µM)	1.6 (≈ 0.00382 µM)		
COC(=O)c1ccc(C[C@H]2CC[C@]3(CC2)OOC2(O3)C3CC4CC(C3)CC2C4)cc1 (stereo partly drawn) [OZ204]	> 10	> 10	6.0	0/0/0%	6.3 days	0/0/0%	6.0	0/0/0%				
FC1(c2ccccc2)CCC2(CC1)OOC1(O2)C2CC3CC(C2)CC1C3 (stereo not drawn) [OZ274]	5.1 (≈ 0.0142 µM)	5.7 (≈ 0.0159 µM)			7.0/ND days	11/ND %						
C1C2CC3CC1CC(C2)C31OO[C@]2(CC[C@@H](CN(C[C@H]3CC[C@]4(CC3)OOC3(O4)C4CC5CC(C4)CC3C5)C3CC3)CC2)O1 (stereo partly drawn) [OZ254, N,N-Bis(cis-adamantane-2-spiro-3′-1′,2′,4′-trioxaspiro[4.5]decane-8′-methyl)cyclopropylamine]			6.0	27%	5.7 days	11%	5.7	2%	> 100	57 (≈ 0.0935 µM)		
CC(=O)NC[C@H]1CC[C@]2(CC1)OOC1(O2)C2CC3CC(C2)CC1C3 (stereo partly drawn) [OZ262]			11.7	96%	12.3 days	98%	10.0	99.39%	0.63 (≈ 0.00188 µM)	0.84 (≈ 0.0025 µM)		
CC(=O)OC[C@H]1CC[C@]2(CC1)OOC1(O2)C2CC3CC(C2)CC1C3 (stereo partly drawn) [OZ118]			7.0	99.0%	8.0 days	98%	8.3	99.57%	1 (≈ 0.00297 µM)	0.24 (≈ 0.000713 µM)		
N=C(N)NN=C1CCC2(CC1)OOC1(O2)C2CC3CC(C2)CC1C3 (stereo not drawn) [OZ172]	3.5 (≈ 0.0105 µM)	5 (≈ 0.015 µM)	8.0	68%	10.3 days	82%	10.3	100%				
COC(=O)c1ncnn1C[C@H]1CC[C@]2(CC1)OOC1(O2)C2CC3CC(C2)CC1C3 (stereo partly drawn) [OZ233]	1.7 (≈ 0.00421 µM)	1.9 (≈ 0.00471 µM)	7.0	69%	7.7 days	76%	8.3	99.66%				
Fc1ccc(OC2CCC3(CC2)OOC2(O3)C3CC4CC(C3)CC2C4)cc1 (stereo not drawn) [OZ193]	5.5 (≈ 0.0147 µM)	8.3 (≈ 0.0222 µM)	9.3	99.75%	8.0 days	93%	11.0	99.92%				
CCOC(=O)N1C2CCC1CC1(C2)OOC2(O1)C1CC3CC(C1)CC2C3 (stereo not drawn) [OZ110, Adamantane-2-spiro-3′-1′,2′,4′-trioxolane-5′-spiro-3″-8″-ethoxycarbonyl-8″-azabicyclo[3.2.1]octane]	5.3 (≈ 0.0146 µM)	2.1 (≈ 0.00578 µM)	6.7	50%	5.3 days	0%	7.7	97.97%				
O=C(O)CNC[C@H]1CC[C@]2(CC1)OO[C@]1(O2)C2CC3CC(C2)CC1C3 [OZ309]	11 (≈ 0.0313 µM)	17 (≈ 0.0484 µM)			8.8 days	99.80%					7.8	86
C1C2CC3CC1CC(C2)C31OOC2(CCC(NC3CC3)CC2)O1 (stereo not drawn) [OZ185]	1.1 (≈ 0.00344 µM)	1.4 (≈ 0.00438 µM)	7.7	86%	6.7 days	56%	10.7	99.96%				
O=[N+]([O-])c1cc(C2(c3ccc(Cl)c([N+](=O)[O-])c3)OOC3(O2)C2CC4CC(C2)CC3C4)ccc1Cl (stereo not drawn) [OZ96, Adamantane-2-spiro-3′-5′,5′-bis(4′-chloro-3′-nitrophenyl)-1′,2′,4′-trioxolane]	8.4 (≈ 0.0166 µM)	> 10	5.7	12%	5.7 days	14%	5.3	19%				
CC(=O)OC(C)(C)C(=O)N[C@H]1CC[C@]2(CC1)OOC1(O2)C2CC3CC(C2)CC1C3 (stereo partly drawn) [OZ202]	6 (≈ 0.0147 µM)	7.9 (≈ 0.0194 µM)	7.0	79%	7.3 days	51%	7.3	74%				
